Results published in paper PMC11943016, “TBG096 Ameliorates Memory Deficiency in AD Mouse Model via Promoting Neurogenesis and Regulation of Hsc70/HK2/PKM2/LAMP2A Signaling Pathway” (International Journal of Molecular Sciences, 2025).

Tests used:
[1] = test system: PC12 cells; assay: EdU cell proliferation in PC12 cells (inhibitor experiment); format: cell-based; settings: 24 h
Experimental: In the inhibitor experiment of EdU cell proliferation activity, PC12 cells were seeded into each well of a 24-well plate as above for 24 h. Then, the medium in each well was replaced with 500 μL of serum-free […] containing VER155008 (inhibitor of Hsc70, 3 µM), or NH4Cl (inhibitor of lysosome, 250 µM) for 30 min according to the literature, and 500 μL of serum-free DMEM containing different samples was added and cultured for 24 h, respectively. After that, PC12 cells were treated with EdU for 2 h according to the operation steps of the BeyoClick™ EdU-488 cell proliferation detection kit (#C0071S, Beyotime Biotechnology, Shanghai, China). After cell labeling, the supernatant was removed. Then, PC12 cells were fixed, washed, and blocked, and the click reaction solution was added at room temperature for 30 min. After that, DAPI staining was performed for 10 min. Finally, PC12 cells were detected by fluorescence microscope (Olympus IX53, Tokyo, Japan).

[2] = test system: HFD-induced AD mice; assay: Behavioral tests (Y-maze, NOR, MWM) in HFD-induced AD mice; format: in vivo
From the text: In experiments with the HFD-induced AD mouse model, a total of 60 Institute of Cancer Research (ICR) male mice aged 4 weeks from Zhejiang Academy of Medical Sciences (Hangzhou, China) were used for animal experiments (permit number: ZJU20230121). The animals were provided free access to a chow diet and water. […] The HFD and normal diet were alternated every two days to maintain freshness. Weekly measurements were taken for water intake, food intake, and body weight. In the eighteenth week, the mice underwent Y-maze and NOR tests. The Morris water maze test was conducted during the nineteenth week. After confirming the successful establishment of the AD model characterized by cognitive impairment, oral administration of treatments commenced. […] Each group had 10 mice.
The Y-maze test is used to evaluate working memory, and the process was referenced in another report. In brief, the Y-maze consists of three black plastic arms (A, B, and C) with the same length (30 cm), width (10 cm), height (15 cm), and 120° relative to adjacent arms. Each mouse is placed facing the wall of arm A and allowed to explore the maze freely for 5 min. The behavior of mice is recorded with a video recorder, and the data are stored in ANY-MAZE software version 6.35 (Stoelting, Chicago, IL, USA). The total number of entries made by the mice into each arm—considered as either whole or half-body entries—is recorded. An alternation is defined as a mouse moving through all three arms without returning to the initial arm on the third visit. Alternation: number of alternations/(number of arm entries − 2) × 100%.
The NOR test is utilized to assess the working memory capabilities of mice. The NOR apparatus consists of an open, black plastic box, two identical objects, and one novel object. The activity of the mice within the open field is captured and recorded using a video recorder, with data subsequently stored in ANY-MAZE software. The test is conducted over a span of two days, incorporating habituation, training, and testing stages. During the habituation phase, the mice are placed in the box devoid of any objects, allowing them to explore freely for a duration of five min. Following a 24 h interval, the NOR test is administered, which consists of both the training and testing phases. In the training phase, each mouse is positioned in the central area of the box, where two identical objects are placed equidistant from the mouse. Each training session lasts for five minutes. After a one-hour break, one of the identical objects is replaced with a new, distinct object, and the exploration duration for each mouse is recorded. Exploration is defined by the time a mouse spends touching or sniffing an object. The exploration times during both the training and testing phases are documented via video recording, and the data are organized within ANY-MAZE software. The object recognition index was defined as follows: (time spent on the new object)/(time spent on the old object + time spent on the new object) × 100%. The data are calculated by ANY-MAZE software.
The MWM test is used to measure spatial memory and long-term memory. The whole MWM equipment includes a circular water tank (diameter 1.5 m, depth 50 cm) with warm water (22 ± 1 °C) 35 cm deep, a platform (diameter 14 cm, immersed 1 cm in water), a camera, and a computer for data analysis. The MWM test is conducted over five 5 days: 4 days for training and 1 day for testing. The pool is divided into four quadrants, and at least three quadrants are tested at a time. In the training stage, the mouse is placed on the wall of one of the four quadrants and allowed to swim and find the platform hidden underwater within 120 s. If the mouse cannot find the platform, the experimenter will guide it and let it stay on the platform for 10 s. The experiment lasts for 4 days. On the fifth day of the test phase, the platform is removed, and each mouse is placed in a similar starting position and allowed to move freely for 90 s. […]

**Q.** For `O=C(SCCCCCCSCCCC(F)(F)F)c1cccc(O)c1O` [TBG096], which “EdU cell proliferation activity” value [1] is on record?
**A.** The value was “promoting PC12 cell proliferation”.

**Q.** What about the “alternation behavior, Y-maze test” value ([2]; 0.1, 5, and 20 mg/kg, vs HFD-only, 20 mg/kg most pronounced) of the same compound?
**A.** Its value is “significantly improved”.

**Q.** And the “optimal dose in NOR test” value ([2]; HFD-induced AD mice)?
**A.** Its value is 5 mg/kg.

**Q.** And the “dosage of optimal therapeutic effect on memory” value ([2]; HFD-induced AD mice, comparable to Met)?
**A.** The value was 20 mg/kg.

**Q.** And the “number of arm entries, Y-maze test” value ([2]; TBG096 0.1, 5, 20 mg/kg, Met 140 mg/kg, 54 days)?
**A.** The value was “No significant differences”.

**Q.** What about the “escape latency, MWM test phase” value ([2]; fifth day) of the same compound?
**A.** The value was “significant reductions”.

**Q.** And the “escape latency, MWM training phase” value ([2]; fourth day, Met 140 mg/kg and all doses of TBG096)?
**A.** Its value is “markedly reduced”.

**Q.** And the “discrimination index, NOR test phase” value ([2]; vs HFD-only group)?
**A.** Its value is “higher”.

**Q.** And the “number of platform crossings, MWM test phase” value ([2]; vs HFD-only group)?
**A.** The value was “increased significantly”.
